This note sets out measurements from paper PMC3688580, “Crystal Structure, SAXS and Kinetic Mechanism of Hyperthermophilic ADP-Dependent Glucokinase from Thermococcus litoralis Reveal a Conserved Mechanism for Catalysis” (PLoS ONE, 2013).

Structures are written as SMILES.

Assay [1] deals with T1, TlGK (ADP-dependent glucokinase from Thermococcus litoralis) (Thermococcus litoralis, UniProt Q7M537).
T1 construct: gene glkA; recombinant, purified from LB culture as in Merino et al. (heat shock, ammonium sulfate, two chromatographic steps); two-domain enzyme
Briefly: isothermal titration calorimetry (data not shown); also SAXS. The class given is binding. Particulars: absence of D-glucose; active site; MgADP.

Assay [2] addresses T1, TlGK (ADP-dependent glucokinase from Thermococcus litoralis). Briefly: X-ray crystal structure […] Å; SAXS. Type of assay: binding.
For assay [3] the target is unchanged. The assay is described as follows: product inhibition, discontinuous pyruvate kinase / lactate dehydrogenase assay. Type of assay: biochemical. Particulars: mixed type vs Mg·ADP and vs D-glucose; read-out: inhibition constants.
Assay [4] has the same target. The assay is described as follows: product inhibition, G6PDH-coupled assay. The class given is biochemical. Particulars: competitive vs Mg·ADP, mixed vs D-glucose; Mg·AMP; pH 7.8; 40 °C.

T1 sequence (Q7M537 whole entry): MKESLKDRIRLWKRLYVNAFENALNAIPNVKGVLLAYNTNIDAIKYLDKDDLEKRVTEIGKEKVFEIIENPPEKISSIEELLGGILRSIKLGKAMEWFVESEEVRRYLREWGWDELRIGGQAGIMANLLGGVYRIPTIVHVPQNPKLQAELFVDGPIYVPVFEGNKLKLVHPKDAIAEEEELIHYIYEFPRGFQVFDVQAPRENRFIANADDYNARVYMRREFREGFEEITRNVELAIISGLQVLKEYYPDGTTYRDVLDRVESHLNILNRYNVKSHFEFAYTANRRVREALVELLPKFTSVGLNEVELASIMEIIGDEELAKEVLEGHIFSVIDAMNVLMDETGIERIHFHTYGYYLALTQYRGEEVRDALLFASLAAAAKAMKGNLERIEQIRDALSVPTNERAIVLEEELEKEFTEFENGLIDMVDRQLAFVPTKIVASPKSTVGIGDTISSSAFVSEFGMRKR

Turning to `Nc1ncnc2c1ncn2[C@@H]1O[C@H](COP(=O)(O)OP(=O)(O)O)[C@@H](O)[C@H]1O` [Mg·ADP], the dissociation constant result in assay [1] is given as “isothermal titration calorimetry experiments demonstrated binding of MgADP to the enzyme”.

Turning to `OC[C@H]1OC(O)[C@H](O)[C@@H](O)[C@@H]1O` (stereo partly drawn) [D-glucose], the “X-ray crystal structure 2.58 Å; SAXS” value in assay [2] (ternary complex with Mg·ADPβS, active site) was 4B8S (TlGK·Mg·ADPβS·D-glucose).

With `O=P(O)(O)OC[C@H]1OC(O)[C@H](O)[C@@H](O)[C@@H]1O` (stereo partly drawn) [D-glucose-6-P], in assay [3], the Ki is 782 µM.

Turning to `Nc1ncnc2c1ncn2[C@@H]1O[C@H](COP(=O)(O)O)[C@@H](O)[C@H]1O` [Mg·AMP], in assay [4], the inhibition constants result is “Mg·AMP behaves as a competitive inhibitor of Mg·ADP”.

As for `Nc1ncnc2c1ncn2[C@@H]1O[C@H](COP(=O)(O)OP(=O)(O)S)[C@@H](O)[C@H]1O` (some centres unmarked) [ADPβS], the “X-ray crystal structure 2.58 Å; SAXS” value in assay [2] (nonhydrolyzable ADP analog with D-glucose and Mg, beta-phosphate lacked density, modelled as AMP) is on record as 4B8S (TlGK·Mg·ADPβS·D-glucose).
